For this assay, the target named is T1, jack bean α-mannosidase (Canavalia ensiformis, UniProt C0HJB3).
T1 construct: purchased Sigma–Aldrich
T1 sequence (C0HJB3 1-981): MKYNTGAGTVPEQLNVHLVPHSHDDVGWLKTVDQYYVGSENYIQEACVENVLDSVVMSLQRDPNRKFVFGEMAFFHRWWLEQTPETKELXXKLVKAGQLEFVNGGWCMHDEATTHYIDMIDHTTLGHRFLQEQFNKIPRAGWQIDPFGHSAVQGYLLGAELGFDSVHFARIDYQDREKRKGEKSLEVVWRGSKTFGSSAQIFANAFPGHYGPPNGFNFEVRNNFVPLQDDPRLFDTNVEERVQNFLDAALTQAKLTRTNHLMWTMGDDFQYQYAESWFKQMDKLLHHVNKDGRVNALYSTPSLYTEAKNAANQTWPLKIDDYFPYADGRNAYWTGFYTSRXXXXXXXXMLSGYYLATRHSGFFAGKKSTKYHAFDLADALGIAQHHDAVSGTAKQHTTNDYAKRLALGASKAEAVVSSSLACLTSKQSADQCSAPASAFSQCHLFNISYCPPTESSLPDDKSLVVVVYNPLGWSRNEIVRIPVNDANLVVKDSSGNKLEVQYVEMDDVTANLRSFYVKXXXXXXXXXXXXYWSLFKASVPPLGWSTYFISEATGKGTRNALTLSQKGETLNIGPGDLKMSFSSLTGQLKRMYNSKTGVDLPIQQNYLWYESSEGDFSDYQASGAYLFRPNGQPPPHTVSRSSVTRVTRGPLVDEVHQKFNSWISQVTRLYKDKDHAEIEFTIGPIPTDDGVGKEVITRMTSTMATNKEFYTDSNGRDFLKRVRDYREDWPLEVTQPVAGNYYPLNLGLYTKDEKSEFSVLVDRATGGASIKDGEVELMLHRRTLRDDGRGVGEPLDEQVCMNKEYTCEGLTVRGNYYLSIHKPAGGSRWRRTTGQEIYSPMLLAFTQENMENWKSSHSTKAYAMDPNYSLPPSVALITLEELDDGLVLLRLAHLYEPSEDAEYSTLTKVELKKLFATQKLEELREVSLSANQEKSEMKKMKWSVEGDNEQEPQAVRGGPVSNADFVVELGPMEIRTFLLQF
Nature of the assay: Jack bean α-mannosidase inhibition assay (Ki, Dixon method). The assay is classed as biochemical. The note with it: for rp (relative inhibition potency): Ki (monovalent reference)/Ki (glycocluster), reference 11a for C6, 11b for C9 linker; for rp/n: relative inhibition potency/number of iminosugar units (valency-corrected). On the procedure: General procedure for inhibition assay
The p-nitrophenyl-α-D-mannopyranoside and α-mannosidase (EC 3.2.1.24, from jack bean, […]
The release of p-nitrophenol was measured continuously at 385 nm to determine initial velocities.[1] All kinetics were performed at 35 °C and started by substrate addition in a 1 mL assay medium (acetate buffer, 0.2 M, pH = 5) containing α-mannosidase (5 mU), substrate (varying concentration from Km/4 to Km value) in presence or absence of various concentrations of inhibitor. Ki […]
are only partially soluble in water, they were dissolved in DMSO for concentrated mother solutions and DMSO/buffer for diluted solutions with a final DMSO concentration under […]
2,5% in all vials. […]
1 Behr, J.-B.; Chevrier, C.; Defoin, A.; Tarnus, C.; Streith, J. Tetrahedron 2003, 59, 543–553.
2 Segel, I. H. Enzyme Kinetics; John Wiley & Sons, New York, 1975, p. 109–144.

Where [1] appears, read: α-mannosidase EC 3.2.1.24 (5 mU), substrate p-nitrophenyl-α-D-mannopyranoside Km/4 to Km, acetate buffer 0.2 M pH 5, 35 °C, p-nitrophenol release at 385 nm, DMSO under 2,5%, Dixon graphical method, determined in duplicate, read-out: Ki.

Data on six molecules can be found in publication PMC4077385, “Synthesis of the first examples of iminosugar clusters based on cyclopeptoid cores” (Beilstein Journal of Organic Chemistry, 2014).

Like-named read-outs stand apart in the source and are kept apart here.

A word on the Ki: it is a dissociation constant, usually derived from enzyme kinetics or from competition with a known ligand.

In the case of `O=C1CN(Cc2cn(CCCCCCCCCN3C[C@H](O)[C@@H](O)[C@H](O)[C@H]3CO)nn2)C(=O)CN(Cc2cn(CCCCCCCCCN3C[C@H](O)[C@@H](O)[C@H](O)[C@H]3CO)nn2)C(=O)CN(Cc2cn(CCCCCCCCCN3C[C@H](O)[C@@H](O)[C@H](O)[C@H]3CO)nn2)C(=O)CN(Cc2cn(CCCCCCCCCN3C[C@H](O)[C@@H](O)[C@H](O)[C@H]3CO)nn2)C(=O)CN(Cc2cn(CCCCCCCCCN3C[C@H](O)[C@@H](O)[C@H](O)[C@H]3CO)nn2)C(=O)CN1Cc1cn(CCCCCCCCCN2C[C@H](O)[C@@H](O)[C@H](O)[C@H]2CO)nn1` [Compound 10b], the “rp (relative inhibition potency)” value was 17 and the rp/n is recorded as 2.8. Also, the Ki under setting [1] came out at 11 ± 1 µM.

Regarding `O=C1CN(Cc2cn(CCCCCCN3C[C@H](O)[C@@H](O)[C@H](O)[C@H]3CO)nn2)C(=O)CN(Cc2cn(CCCCCCN3C[C@H](O)[C@@H](O)[C@H](O)[C@H]3CO)nn2)C(=O)CN(Cc2cn(CCCCCCN3C[C@H](O)[C@@H](O)[C@H](O)[C@H]3CO)nn2)C(=O)CN(Cc2cn(CCCCCCN3C[C@H](O)[C@@H](O)[C@H](O)[C@H]3CO)nn2)C(=O)CN(Cc2cn(CCCCCCN3C[C@H](O)[C@@H](O)[C@H](O)[C@H]3CO)nn2)C(=O)CN(Cc2cn(CCCCCCN3C[C@H](O)[C@@H](O)[C@H](O)[C@H]3CO)nn2)C(=O)CN(Cc2cn(CCCCCCN3C[C@H](O)[C@@H](O)[C@H](O)[C@H]3CO)nn2)C(=O)CN1Cc1cn(CCCCCCN2C[C@H](O)[C@@H](O)[C@H](O)[C@H]2CO)nn1` [Compound 10c], the affinity, expressed as Ki, was 21 ± 2 µM.

`O=C1CN(Cc2cn(CCCCCCCCCN3C[C@H](O)[C@@H](O)[C@H](O)[C@H]3CO)nn2)C(=O)CN(Cc2cn(CCCCCCCCCN3C[C@H](O)[C@@H](O)[C@H](O)[C@H]3CO)nn2)C(=O)CN(Cc2cn(CCCCCCCCCN3C[C@H](O)[C@@H](O)[C@H](O)[C@H]3CO)nn2)C(=O)CN(Cc2cn(CCCCCCCCCN3C[C@H](O)[C@@H](O)[C@H](O)[C@H]3CO)nn2)C(=O)CN(Cc2cn(CCCCCCCCCN3C[C@H](O)[C@@H](O)[C@H](O)[C@H]3CO)nn2)C(=O)CN(Cc2cn(CCCCCCCCCN3C[C@H](O)[C@@H](O)[C@H](O)[C@H]3CO)nn2)C(=O)CN(Cc2cn(CCCCCCCCCN3C[C@H](O)[C@@H](O)[C@H](O)[C@H]3CO)nn2)C(=O)CN(Cc2cn(CCCCCCCCCN3C[C@H](O)[C@@H](O)[C@H](O)[C@H]3CO)nn2)C(=O)CN(Cc2cn(CCCCCCCCCN3C[C@H](O)[C@@H](O)[C@H](O)[C@H]3CO)nn2)C(=O)CN1Cc1cn(CCCCCCCCCN2C[C@H](O)[C@@H](O)[C@H](O)[C@H]2CO)nn1` [Compound 10f] had an inhibition constant (Ki) of 5 ± 1 µM.

Take `O=C1CN(Cc2cn(CCCCCCCCCN3C[C@H](O)[C@@H](O)[C@H](O)[C@H]3CO)nn2)C(=O)CN(Cc2cn(CCCCCCCCCN3C[C@H](O)[C@@H](O)[C@H](O)[C@H]3CO)nn2)C(=O)CN(Cc2cn(CCCCCCCCCN3C[C@H](O)[C@@H](O)[C@H](O)[C@H]3CO)nn2)C(=O)CN(Cc2cn(CCCCCCCCCN3C[C@H](O)[C@@H](O)[C@H](O)[C@H]3CO)nn2)C(=O)CN(Cc2cn(CCCCCCCCCN3C[C@H](O)[C@@H](O)[C@H](O)[C@H]3CO)nn2)C(=O)CN(Cc2cn(CCCCCCCCCN3C[C@H](O)[C@@H](O)[C@H](O)[C@H]3CO)nn2)C(=O)CN(Cc2cn(CCCCCCCCCN3C[C@H](O)[C@@H](O)[C@H](O)[C@H]3CO)nn2)C(=O)CN1Cc1cn(CCCCCCCCCN2C[C@H](O)[C@@H](O)[C@H](O)[C@H]2CO)nn1` [Compound 10d]: the Ki stood at 8 ± 3 µM.

Consider `O=C1CN(Cc2cn(CCCCCCN3C[C@H](O)[C@@H](O)[C@H](O)[C@H]3CO)nn2)C(=O)CN(Cc2cn(CCCCCCN3C[C@H](O)[C@@H](O)[C@H](O)[C@H]3CO)nn2)C(=O)CN(Cc2cn(CCCCCCN3C[C@H](O)[C@@H](O)[C@H](O)[C@H]3CO)nn2)C(=O)CN(Cc2cn(CCCCCCN3C[C@H](O)[C@@H](O)[C@H](O)[C@H]3CO)nn2)C(=O)CN(Cc2cn(CCCCCCN3C[C@H](O)[C@@H](O)[C@H](O)[C@H]3CO)nn2)C(=O)CN1Cc1cn(CCCCCCN2C[C@H](O)[C@@H](O)[C@H](O)[C@H]2CO)nn1` [Compound 10a], for which the Ki under setting [1] was 65 ± 24 µM.

Turning to `O=C1CN(Cc2cn(CCCCCCN3C[C@H](O)[C@@H](O)[C@H](O)[C@H]3CO)nn2)C(=O)CN(Cc2cn(CCCCCCN3C[C@H](O)[C@@H](O)[C@H](O)[C@H]3CO)nn2)C(=O)CN(Cc2cn(CCCCCCN3C[C@H](O)[C@@H](O)[C@H](O)[C@H]3CO)nn2)C(=O)CN(Cc2cn(CCCCCCN3C[C@H](O)[C@@H](O)[C@H](O)[C@H]3CO)nn2)C(=O)CN(Cc2cn(CCCCCCN3C[C@H](O)[C@@H](O)[C@H](O)[C@H]3CO)nn2)C(=O)CN(Cc2cn(CCCCCCN3C[C@H](O)[C@@H](O)[C@H](O)[C@H]3CO)nn2)C(=O)CN(Cc2cn(CCCCCCN3C[C@H](O)[C@@H](O)[C@H](O)[C@H]3CO)nn2)C(=O)CN(Cc2cn(CCCCCCN3C[C@H](O)[C@@H](O)[C@H](O)[C@H]3CO)nn2)C(=O)CN(Cc2cn(CCCCCCN3C[C@H](O)[C@@H](O)[C@H](O)[C@H]3CO)nn2)C(=O)CN1Cc1cn(CCCCCCN2C[C@H](O)[C@@H](O)[C@H](O)[C@H]2CO)nn1` [Compound 10e], the “rp (relative inhibition potency)” value was 21 and the rp/n was found to be 2.1. Affinity (as E1 but single determination of Ki without duplicate) was put at a Ki of 15 ± 10 µM.
